# How the values were obtained:
# [1] = tested on: Christensenella sp. MNH04863; experiment: Antibiotic susceptibility testing by disk diffusion method; format: cell-based; conditions: for Inhibition Zone Diameter: against Christensenella sp. MNH04863
# From the text: The disk diffusion method was used to conduct the antibiotic susceptibility testing of Christensenella sp. MNH04863. Christensenella sp.
# [2] = tested on: KPC mouse pancreatic cancer cells; conditions: in vivo
# [3] = tested on: KPC mouse pancreatic cancer cells; experiment: Pancreatic cancer mouse homologous tumor model, combination with gemcitabine
Compound,Susceptibility of Christensenella sp. MNH04863 to the antibiotic [1],Inhibition Zone Diameter [1],other results
"O=C(O)c1cn(C2CC2)c2cc(N3CCNCC3)c(F)cc2c1=O [Ciprofloxacin (CIP), Ciprofloxacin]",resistance,0 mm,–
Penicillin [Penicillin (PEN)],sensitive,43.06 mm,–
"CC[C@H]1OC(=O)[C@H](C)[C@@H](O[C@H]2C[C@@](C)(OC)[C@@H](O)[C@H](C)O2)[C@H](C)[C@@H](O[C@@H]2O[C@H](C)C[C@H](N(C)C)[C@H]2O)[C@](C)(O)C[C@@H](C)C(=O)[C@H](C)[C@@H](O)[C@]1(C)O [Erythromycin (E), Erythromycin]",sensitive,16.82 mm,–
"CO/N=C(\C(=O)N[C@@H]1C(=O)N2C(C(=O)O)=C(CSc3nc(=O)c(=O)[nH]n3C)CS[C@H]12)c1csc(N)n1 [Ceftriaxone (CTR), Ceftriaxone]",sensitive,37.32 mm,–
"O=C(N[C@H](CO)[C@H](O)c1ccc([N+](=O)[O-])cc1)C(Cl)Cl [Chloramphenicol (C), Chloramphenicol]",sensitive,38.88 mm,–
"CCC[C@@H]1C[C@@H](C(=O)N[C@@H]([C@H]2O[C@H](SC)[C@H](O)[C@@H](O)[C@H]2O)[C@@H](C)O)N(C)C1 [Lincomycin (MY), Lincomycin]",sensitive,29.86 mm,–
Nc1ccn([C@@H]2O[C@H](CO)[C@@H](O)C2(F)F)c(=O)n1 [Gemcitabine],–,–,Number of Euthanized mice ([2]; C57BL/6J): 2; Average Weight Before Dissection [2]: 21.13 g; Average Dissected Tumor Weight ([3]; experimental endpoint): 0.68 g; Experimental Endpoint TGI ([3]; vs control): 40.0%
Gentamycin [Gentamycin (GEN)],resistance,0 mm,–
"CN(C)[C@@H]1C(O)=C(C(N)=O)C(=O)[C@@]2(O)C(O)=C3C(=O)c4c(O)cccc4[C@@](C)(O)[C@H]3C[C@@H]12 [Tetracycline (TET), Tetracycline]",–,46.11 mm,–
Compound Sulfamethoxazole [Compound Sulfamethoxazole (SXT)],resistance,0 mm,–
"CC1(C)S[C@@H]2[C@H](NC(=O)[C@H](N)c3ccccc3)C(=O)N2[C@H]1C(=O)O [Ampicillin (AMP), Ampicillin]",resistance,0 mm,–
